From patent US8802711B2, “TRPV1 antagonists” (AbbVie Inc., priority 2011, dated 2014)
Where two headings read alike, the source gives them in different places.

Legend:
[1] = target: T1, human TRPV1 receptor (hTRPV1) (Homo sapiens (Human), UniProt Q8NER1); assay: Capsaicin activation assay (FLIPR intracellular Ca2+); assay type: cell-based; conditions: inhibition of capsaicin-induced intracellular Ca2+ increase, read-out: hTRPV1 cap IC50
Method in brief: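 Antagonism measured as [Ca2+]i fluorescence on FLIPR Tetra: compounds given 3 min ahead of capsaicin, added as 200 nM (4×), to dye-loaded hTRPV1-HEK293 cells. Response taken as baseline-subtracted peak, normalized to the 50 nM capsaicin control; 12-point one-third-log titrations.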

[2] = target: T1, human TRPV1 receptor (hTRPV1); assay: Acid activation assay (pH 5.0, FLIPR intracellular Ca2+); assay type: cell-based; conditions: 37.5 μM antagonist, percentage of the maximal pH 5.0-induced response remaining, read-out: hTRPV1 H+ (max % remain)
Method in brief: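 Antagonism of acid-evoked Ca2+ influx measured by FLIPR Calcium-4 fluorescence after a pH 5.0 DPBS/MES stimulus, with compounds preincubated 3 min over 12 half-log concentrations. Cells: stable hTRPV1-expressing 1321N1 line, dye-loaded 90–120 min in the dark at 25 °C.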

[3] = Table 1, HEK293 cells expressing human TRPV1

T1 sequence (Q8NER1 whole entry): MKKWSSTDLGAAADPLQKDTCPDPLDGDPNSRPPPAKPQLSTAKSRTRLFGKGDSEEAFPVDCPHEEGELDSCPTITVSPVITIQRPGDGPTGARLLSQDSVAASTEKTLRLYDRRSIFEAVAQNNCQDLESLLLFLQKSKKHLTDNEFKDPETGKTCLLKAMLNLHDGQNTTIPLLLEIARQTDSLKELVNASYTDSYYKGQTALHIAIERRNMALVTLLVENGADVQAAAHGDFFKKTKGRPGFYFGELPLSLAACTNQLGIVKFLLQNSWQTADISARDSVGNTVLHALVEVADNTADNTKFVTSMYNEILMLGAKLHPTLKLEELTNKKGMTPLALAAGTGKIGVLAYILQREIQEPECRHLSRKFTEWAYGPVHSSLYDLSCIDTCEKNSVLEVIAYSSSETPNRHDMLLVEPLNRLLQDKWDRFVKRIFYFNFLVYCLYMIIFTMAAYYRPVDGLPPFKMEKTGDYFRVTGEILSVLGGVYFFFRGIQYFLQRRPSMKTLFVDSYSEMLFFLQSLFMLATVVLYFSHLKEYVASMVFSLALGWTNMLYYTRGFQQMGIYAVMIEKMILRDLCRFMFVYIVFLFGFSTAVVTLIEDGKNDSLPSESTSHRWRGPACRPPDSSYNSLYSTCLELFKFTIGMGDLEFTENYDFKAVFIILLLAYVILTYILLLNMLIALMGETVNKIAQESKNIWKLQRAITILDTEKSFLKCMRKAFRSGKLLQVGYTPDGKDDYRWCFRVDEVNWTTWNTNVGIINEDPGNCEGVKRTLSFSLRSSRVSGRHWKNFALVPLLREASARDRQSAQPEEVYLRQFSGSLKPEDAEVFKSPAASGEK

| IC50 [1, 3] [nM] | IC50 ([1]; Table 2) [nM] | remaining activity at 37.5 µM ([2]; Table 1) [%] | remaining activity at 37.5 µM ([2]; Table 2) [%] | Structure (SMILES) |
| --- | --- | --- | --- | --- |
| 18 | 22 | 37 | 21 | Cn1ncc2c(NC(=O)N[C@@H]3CC[C@H](c4ccccc4)C3)cccc21 [Example 4, 1-(1-methyl-1H-indazol-4-yl)-3-[(1R,3S)-3-phenylcyclopentyl]urea] |
| 4 | 4 | 62 | 62 | Cc1cc2c(NC(=O)N[C@@H]3CC[C@H](c4ccccc4)C3)c(F)ccc2cn1 [Example 6, 1-(6-fluoro-3-methylisoquinolin-5-yl)-3-[(1R,3S)-3-phenylcyclopentyl]urea] |
| 30 | 30 | 36 | 36 | O=C(Nc1cccc2[nH]ncc12)N[C@H]1CC[C@H](c2ccccc2)C1 [Example 14, 1-(1H-indazol-4-yl)-3-[(1S,3S)-3-phenylcyclopentyl]urea] |
| 20 | 20 | 8 | 8 | O=C(Nc1cccc2[nH]ncc12)N[C@@H]1CC[C@@H](c2ccccc2)C1 [Example 21, 1-(1H-indazol-4-yl)-3-[(1R,3R)-3-phenylcyclopentyl]urea] |
| 64 | 64 | 41 | 41 | O=C(Nc1cccc2[nH]ncc12)N[C@H]1CC[C@@H](c2ccccc2)C1 [Example 28, 1-(1H-indazol-4-yl)-3-[(1S,3R)-3-phenylcyclopentyl]urea] |
